ChEMBL document CHEMBL5108078, “Design and Synthesis of Phenyl Sulfide-Based Cationic Amphiphiles as Membrane-Targeting Antimicrobial Agents against Gram-Positive Pathogens” (J Med Chem, 2022)
In brackets after ≈: the same amount, converted by molar mass.

Assays:
Staphylococcus aureus [1] = test: Antibacterial activity against methicillin resistant Staphylococcus aureus N315 assessed as inhibition of bacterial growth incubated for 24 hrs by microbroth dilution method; format: functional
Staphylococcus aureus [2] = test: Antibacterial activity against Staphylococcus aureus ATCC 29213 infected in mouse corneal infection model assessed as log reduction in bacterial load at 50 mg/ml pre-infected with bacteria for 24 hrs followed by compound administered four times a day for 3 consecutive weeks; format: functional; conditions: time 3 weeks
Staphylococcus aureus [3] = test: Antibacterial activity against methicillin resistant Staphylococcus aureus NCTC10442 assessed as inhibition of bacterial growth incubated for 24 hrs by microbroth dilution method; format: functional
Staphylococcus aureus [4] = test: Antibacterial activity against Staphylococcus aureus ATCC 29213 assessed as inhibition of bacterial growth incubated for 24 hrs by microbroth dilution method; format: functional
[5] = system: Staphylococcus epidermidis; test: Antibacterial activity against Staphylococcus epidermidis CMCC26069 assessed as inhibition of bacterial growth incubated for 24 hrs by microbroth dilution method; format: functional
Staphylococcus aureus [6] = test: Antibacterial activity against Staphylococcus aureus ATCC 15981 assessed as inhibition of bacterial growth incubated for 24 hrs by microbroth dilution method; format: functional
Enterococcus faecalis = test: Antibacterial activity against Enterococcus faecalis ATCC 29212 assessed as inhibition of bacterial growth incubated for 24 hrs by microbroth dilution method; format: functional
[7] = system: Staphylococcus epidermidis; test: Antibacterial activity against Staphylococcus epidermidis ATCC 12228 assessed as inhibition of bacterial growth incubated for 24 hrs by microbroth dilution method; format: functional
[8] = Hemolytic activity in rabbit RBC incubated for 1 hr by microplate reader analysis; format: toxicity, cell-based, Oryctolagus cuniculus, Erythrocyte; conditions: rabbit red blood cells (erythrocytes)
Bacillus subtilis = test: Antibacterial activity against Bacillus subtilis CMCC63501 assessed as inhibition of bacterial growth incubated for 24 hrs by microbroth dilution method; format: functional

Row | Compound | MIC (Staphylococcus aureus [1]) [µg/mL] | log(activity) (Staphylococcus aureus [2]) | MIC (Staphylococcus aureus [3]) [µg/mL] | MIC (Staphylococcus aureus [4]) [µg/mL] | MIC [5] [µg/mL] | MIC (Staphylococcus aureus [6]) [µg/mL] | MIC (Enterococcus faecalis) [µg/mL] | MIC [7] [µg/mL] | HC50 at 1 h [8] [µg/mL] | MIC (Bacillus subtilis) [µg/mL]
1 | CN[C@H](CC(C)C)C(=O)N[C@H]1C(=O)N[C@@H](CC(N)=O)C(=O)N[C@H]2C(=O)N[C@H]3C(=O)N[C@H](C(=O)N[C@H](C(=O)O)c4cc(O)cc(O)c4-c4cc3ccc4O)[C@H](O)c3ccc(c(Cl)c3)Oc3cc2cc(c3O[C@@H]2O[C@H](CO)[C@@H](O)[C@H](O)[C@H]2O[C@H]2C[C@](C)(N)[C@H](O)[C@H](C)O2)Oc2ccc(cc2Cl)[C@H]1O [VANCOMYCIN] | 1.56 (≈ 1.08 µM) | 5.21 | 0.78 (≈ 0.538 µM) | 0.78 (≈ 0.538 µM) |  |  |  |  |  | 
2 | COC(=O)[C@H](CCCNC(=N)N)NC(=O)[C@H](CCCNC(=N)N)NC(=O)COc1ccc(C(C)(C)CC(C)(C)C)cc1Sc1cc(C(C)(C)CC(C)(C)C)ccc1OCC(=O)N[C@@H](CCCNC(=N)N)C(=O)N[C@@H](CCCNC(=N)N)C(=O)OC | 1.56 (≈ 1.29 µM) |  | 3.12 (≈ 2.58 µM) | 1.56 (≈ 1.29 µM) | 1.56 (≈ 1.29 µM) | 3.12 (≈ 2.58 µM) | 3.12 (≈ 2.58 µM) | 1.56 (≈ 1.29 µM) | > 200 | 1.56 (≈ 1.29 µM)
3 | COC(=O)[C@H](CCCNC(=N)N)NC(=O)COc1c(Sc2cc(C)cc(C(C)(C)C)c2OCC(=O)N[C@@H](CCCNC(=N)N)C(=O)OC)cc(C)cc1C(C)(C)C | 1.56 (≈ 1.91 µM) |  | 3.12 (≈ 3.83 µM) | 3.12 (≈ 3.83 µM) | 0.78 (≈ 0.957 µM) | 1.56 (≈ 1.91 µM) | 12.5 (≈ 15.3 µM) | 0.78 (≈ 0.957 µM) | > 200 | 1.56 (≈ 1.91 µM)
